Test: gradient 5% acetonitrile 3 min, to 50% in 2 min, to 85% in 15 min, held 3 min, 100 µL/min
Details: column: Zorbax Extend-C18 2.1 x 50 mm; eluents: water / acetonitrile, 0.1% formic acid
In short: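 Standards, all pure, were combined into mixtures of ~100 molecules and run at 100 μL/min on a Zorbax Extend-C18 column (2.1 × 50 mm, 1.8 μm) with water and acetonitrile, each containing 0.1% formic acid. A coupled quadrupole time-of-flight mass spectrometer operated in positive and negative ionization mode. Retention time values come from computationally picked adduct peaks, each inspected manually.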

SMILES | RP-LC retention time [s]
COCCNC(=O)c1cc2occc2c(Nc2ccc(Br)c(C)c2)n1 | 1040
COc1ccc(Cl)cc1NS(=O)(=O)c1cc(-c2c(C)noc2NC(C)=O)ccc1OC | 823
CC(=O)N1c2ccc(S(=O)(=O)N3CCCC3)cc2CC1C(=O)NCCN(C)C1CCCCC1 (stereo not drawn) | 577
O=C(CN1CCN(C(=O)Nc2ccc(Br)cc2)CC1=O)NCCN1CCCCC1 | 602
CCOC(=O)c1cc(C)nc2c1c(=O)n(Cc1cccc(C)c1)c(=O)n2C | 1130
COc1ccc(-c2nc3ncc4c(=O)n(CCc5c[nH]c6ccccc56)ccc4n3n2)cc1 | 940
Cn1cc(CC(=O)N2CCN(S(=O)(=O)C3CC3)CC2)c2ccccc21 | 577
COc1cc(CN2C[C@@H]3C(=O)N(CCCN4CCCC4=O)C(=O)[C@@H]3C2)ccc1OC(C)C | 610
Cn1nccc1-c1cccc(-c2noc(CNC(=O)Cc3ccc(Cl)cc3)n2)c1 | 871
CC(C)CC(=O)NCCc1csc(-c2ccc(Cl)cc2)n1 | 881
COc1cccc(-c2nc(C3CCN(S(=O)(=O)c4ccc5c(c4)CCC5)CC3)no2)c1 | 1220
CCCC(=O)Nc1ccc2nc(N3CCN(CC)CC3)cc(C)c2c1 | 560
O=C(NCC1CCCO1)c1ccc2c(c1)NC(=O)C1CCC(=O)N21 (stereo not drawn) | 598
COc1ccc(C(=S)N2CCN(c3cccc(Cl)c3)CC2)cc1 | 1210
CC(C)N(CCC(=O)c1ccc2ccccc2c1)Cc1ccccc1 | 859
O=C(NCc1ccco1)C1CCN(S(=O)(=O)c2cc(C(=O)N3CCCC3)cs2)CC1 | 715
CCN1CCN(c2nc(F)c(F)c(S(=O)(=O)CCNc3ccccc3)c2F)CC1 | 689
C/C=C/C(=O)N1C(=O)OC[C@@H]1Cc1ccccc1 | 891
Cc1cccc(NC(=O)N2[C@H]3CC[C@@H]2c2cncnc2C3)c1 | 674
O=C(NC1CCN(c2cc(-c3cccnc3)[nH]n2)CC1)C1CCCCC1 | 573
COc1ccc(-c2nc(-c3ccc(S(=O)(=O)N4CCCC4)cc3)no2)cc1 | 1140
Cc1cc(C)n2nc(SCC(=O)NCc3cccs3)nc2n1 | 647

SMILES | RP-LC retention time [s]
CC(C)c1ccc(S(=O)(=O)N2C[C@@H](F)C[C@H]2C(=O)N2CCOCC2)cc1 | 802
O=C(Cc1ccc(F)cc1)N1CCN(c2nc(CN3CCOCC3)cs2)CC1 | 616
Cc1cc(C)cc(OCC(=O)N2CCCCC2CCN2CCOCC2)c1 (stereo not drawn) | 668
COc1ccc(NC(=O)N2CC=C(c3cn(C(C)C)c4ncccc34)CC2)cc1 | 858
CCc1ccc(NC(=O)Cn2nc(N3CCC(C)CC3)c3ccccc3c2=O)cc1 | 1100
Cc1ccccc1N1OC2C(=O)N(c3ccc(F)cc3)C(=O)C2C1c1ccncc1 (stereo not drawn) | 671
Cc1cnc(-n2nnc(C(=O)N3CCOCC3)c2C)s1 | 658
CCc1ccc(S(=O)(=O)NCCc2csc3nc(-c4cccc(F)c4)nn23)s1 | 994
Cc1cc2nn(CC(=O)Nc3ccc(F)c(F)c3)c(=O)n2c(Nc2ccc(F)cc2)n1 | 1020
Cc1ccc(NC(=O)Cn2nc3nc(N4CCCC(C)C4)ccn3c2=O)c(C)c1 (stereo not drawn) | 808
CCCN(C)C(=O)c1ccc2nc(-c3ccccc3)cn2c1 | 618
CC1CCN(CCCNC(=O)C2c3ccccc3C(=O)N(C)C2c2cccs2)CC1 (stereo not drawn) | 624
Cc1cc(NC2CCCCC2)nc(-n2nc(C)cc2C)n1 | 850
Cc1ccc2c(c1)N(C(=O)Cn1c(=O)c(CCC(=O)NCC(C)C)nc3ccccc31)CCO2 | 884
CCn1c(=O)sc2cc(S(=O)(=O)N3CCC(C(=O)NCc4cccnc4)CC3)ccc21 | 610
O=C(c1ccc2c(c1)OCO2)N1CCN(c2ncnc3c2CCC3)CC1 | 588
Cn1nccc1C(=O)Nc1c(-c2cccc(F)c2)nc2sc(N3CCCCC3)nn12 | 882
Cc1cc(Cl)ccc1OCc1nc(-c2cccc(-c3ccn[nH]3)c2)no1 | 1090
CN(C)CC1(O)CCC2(CCN(C(=O)c3cccn3C)CC2)CC1 | 577
CCN(Cc1ccccc1)C(=O)C(=O)c1c[nH]c2ccccc12 | 903
COc1ccc(C(=O)N2[C@H]3CC[C@@H]2c2cnc(C)nc2C3)cn1 | 622
CCCn1cnc2cc(CNS(=O)(=O)c3ccc(F)cc3)ccc21 | 635

SMILES | RP-LC retention time [s]
COc1cccc(-c2noc(C3CCCN3C(=O)c3ccoc3)n2)c1 (stereo not drawn) | 854
O=C(Cn1nc(N2CCSCC2)c2ccccc2c1=O)Nc1cccc(Cl)c1 | 1010
Cc1nnc(-c2cc(C)n(CC(=O)Nc3ccc(Br)cc3C)c2C)o1 | 847
O=C(NCc1cccnc1)c1cccn2c(=O)c3cc(Cl)ccc3nc12 | 657
CSc1cccc(NC(=O)Cn2cc(-c3ccccc3)c3ncn(C4CC4)c(=O)c32)c1 | 1020
COCc1noc(CC2CCOC3(CCN(C(=O)C4(c5ccccc5)CC4)CC3)C2)n1 (stereo not drawn) | 820
CCOC(=O)c1[nH]c(C)c(CCC(=O)N2CCC(C(=O)NCc3cccc(OC)c3)CC2)c1C | 773
O=C(CN1CCC2(CC1)N=C(c1ccc(Br)cc1)C(=O)N2)Nc1ccccc1 | 825
CCS(=O)(=O)N1CC(=O)N(Cc2cccc(C)c2)C(C)(C(=O)NCc2ccc(F)cc2)C1 (stereo not drawn) | 882
CN1CCCc2cc(C(CNC(=O)C(=O)NCc3ccccc3)N3CCCCC3)ccc21 (stereo not drawn) | 746
CCCN(Cc1cccs1)C(=O)c1cc2c(=O)n(CCC)c3ccccc3n2n1 | 1140
CCOc1ccccc1-c1nc(C2CC(=O)N(c3ccc(C)cc3)C2)no1 (stereo not drawn) | 1090
COc1cc(-c2noc(C3CC(=O)N(c4cccc(Cl)c4)C3)n2)cc(OC)c1OC (stereo not drawn) | 1010
O=C(Cn1c(=O)c2cccn2c2ccc(F)cc21)N1CCCCCC1 | 840
Cn1c(CN2CCN(C(=O)c3cc4ccccc4o3)CC2)nc2ccccc21 | 580
O=C(Nc1ccccc1)C12CC1/C(=N\O)c1ccccc1O2 (stereo not drawn) | 825
Cn1cc(CN2CCCC(COc3ccccc3C(=O)N3CCCC3)C2)c2ccccc21 (stereo not drawn) | 695
CCOc1ccc(-c2csc(Cc3nc(-c4cccc(Cl)c4)no3)n2)cc1 | 1340
O=C1CC(c2noc(-c3cccc(Cl)c3)n2)CN1c1ccc(F)cc1 (stereo not drawn) | 1030
CN1CCCN(C(c2ccccc2)c2ccc(Cl)cc2)CC1 (stereo not drawn) | 796
CC(C)(C)c1nnc2n(c1=O)N=C(c1ccc(F)cc1)CS2 | 857
O=c1c2cc(-c3ccc(F)cc3)nn2ccn1CC(O)c1ccc2c(c1)OCO2 (stereo not drawn) | 864

SMILES | RP-LC retention time [s]
COc1ccc(OC)c(-c2cn3ccn(-c4ccc(OC)c(Cl)c4)c(=O)c3n2)c1 | 885
Cn1nc(-c2ccc(F)cc2)cc1C(=O)NCc1n[nH]c(=O)c2ccccc12 | 694
CCOC(=O)Nc1nc2c(s1)CN(S(=O)(=O)c1c(C)noc1C)CC2 | 747
CCOc1cccc(-c2noc(CN3C(=O)COc4cc(C)ccc43)n2)c1 | 1130
O=C(COc1ccccc1)Nc1nonc1NC(=O)COc1ccccc1 | 854
N#Cc1ccc(C(=O)Nc2cnc(-c3cccc(Cl)c3)nc2)cc1 | 1050
CCn1nc(C)c2c(-c3ccccc3)cc(OC(C)C(=O)NCc3ccco3)nc21 (stereo not drawn) | 782
CCCNC(=O)c1ccc(-c2nc3cc(NS(=O)(=O)c4cccs4)ccc3n2C)cc1 | 662
O=C(c1ccc(-c2cncnc2)nc1)N1CCN(c2ccc(Cl)cc2)CC1 | 796
CCN1CCN(C(=O)C(C)n2c(=O)c(C(F)(F)F)nc3cc(C)c(C)cc32)CC1 (stereo not drawn) | 702
COc1cccc(NC(=O)C2c3ccccc3C(=O)N3CCc4cc(OC)c(OC)cc4C23)c1 (stereo not drawn) | 784
CC(C)CN1C(=O)c2ccccc2C(C(=O)N2CCN(c3ccccn3)CC2)C1c1cccs1 (stereo not drawn) | 674
Cc1ccsc1CCNC(=O)C1CCN(S(=O)(=O)c2c(C)nn(-c3ccccc3)c2C)CC1 | 955
CCN1CCN(CCNC(=O)c2ccc(CS(=O)c3cccc(Cl)c3)o2)CC1 (stereo not drawn) | 576
COc1ccccc1CNC(=O)CCC1CCN(c2cc(NC3CC3)ncn2)CC1 | 669
Cc1sc(NC(=O)c2ccc(Cl)cc2)nc1-c1ccc2c(c1)NC(=O)CO2 | 954
COc1cc([C@@H]2c3cc4c(cc3[C@H](O)[C@@H](CO)[C@@H]2C(=O)NCc2cccc(C(F)(F)F)c2)OCO4)cc(OC)c1OC | 783
CCN(CC)c1nc2cc(C(=O)OC)ccc2c(=O)n1-c1cccc(OC)c1 | 1110
COc1ccc2nc(CN3CCN(S(=O)(=O)c4cccs4)CC3)[nH]c2c1 | 584
COC1CCC12CCN(C(=O)c1cccs1)CC2 (stereo not drawn) | 748
CCn1cnc(S(=O)(=O)N2CCC(C(=O)NCc3ccc(OC)cc3)CC2)c1 | 674
O=C(NCc1cccnc1-c1ccc(F)cc1)c1ccc(F)cc1F | 690

— the METLIN SMRT retention time set (Domingo-Almenara et al. 2019)
